In patent US20250236616A1, “IMMUNOMODULATING AZALIDES” (Zoetis Services LLC, priority 2021, published 2025):
Values after ≈ are worked out from the molar mass of the structure shown.

Tests used:
[1] = system: natural bovine respiratory disease (BRD); assay: Natural bovine respiratory disease study, treatment failure; format: in vivo, beef calves; details: Zactran group T04 (dose not given), 14-day observation
M. haemolytica = assay: MIC, M. haemolytica strains; format: cell-based
Source text: (§1) Primary screening of the compounds of the invention included the evaluation of antibacterial activity of analogs through determination of microbial inhibition concentration (MIC) as per CLSI guidelines. The screening panel included the relevant BRD pathogens: 1) M. haemolytica (e.g., 12726, 46571 and 49023, all AHDRCC; and 33396 (ATCC)); and 2) P. multocida (e.g., 34135 and 46572 (both AHDRCC) and 43137 (ATCC)). In some instances, H. somni (A700025K) pathogens were also included in the screening panel. The AHDRCC strains originated from the Zoetis BRD/SRD surveillance program and refer to the Animal Health Development and Research Culture Collection. In addition, the screen assessed S. aureus (29213 ATCC) as a representative Gram-positive isolate, E.faecalis (19433 ATCC) as a commensal gram-positive gastrointestinal bacterium and E. coli (100, 3110 and 25922 (ATCC)) for the evaluation of efflux potential. The screening panel BRD pathogens were assessed in determining antibacterial activity of the Formula (1) compounds.
(§2) All relevant BRD pathogens were initially screened at a top concentration of 64 μg/mL of a Formula (1) compound in an eleven-point dilution series. […] If an Example was purified further, the MICs moved […] essentially two dilutions across all strains tested in the screening panel.
(§3) In-Vitro MIC Model Compounds were analyzed for antibacterial activity against a panel of animal health specific gram-positive and gram-negative clinical strains by diluting compounds in DMSO to an appropriate stock concentration to determine the Minimal Inhibitory Concentration (MIC) via a semi-automated broth micro-dilution method (CLSI reference method) with QC strains and anti-microbial agent(s). Specifically, bacteria were grown overnight on TSA w/5% sheep blood agar plates and diluted in saline buffer to a McFarland Standard 0.5, then further diluted in cation-ion adjusted Mueller Hinton Broth to a final concentration of approximately 5×10^5 CFU/mL. 100 μL of inoculated media was added to 96-well plate(s) with 3 μL of serially diluted compound in each row. Depending on strain (see CLSI reference method), bacteria were incubated 18-22 hours at 35-37° C. in ambient air, with 5% CO2 or anaerobically (up to 48 hours).

H. somni = assay: MIC, H. somni strains; format: cell-based
Source text: as §1, §2, §3

P. multocida = assay: MIC, P. multocida strains; format: cell-based
Source text: as §1, §2, §3

[2] = lung isolates at necropsy, natural BRD study, n=116
[3] = lung isolates at necropsy, natural BRD study, n=25
[4] = lung isolates at necropsy, natural BRD study, n=33

For `CCCN1C[C@H](C)[C@@H](O)[C@](C)(O)[C@@H](CC)OC(=O)[C@H](C)[C@@H](O[C@H]2C[C@@](C)(OC)[C@@H](O)[C@H](C)O2)[C@H](C)[C@@H](O[C@@H]2O[C@H](C)C[C@H](N(C)C)[C@H]2O)[C@](C)(O)C[C@H]1C` [gamithromycin, reference compound], the Percent failure [1] was 29.8%, the MIC50 (M. haemolytica; [2]) was 1 µg/mL (≈ 1.29 µM) and the MIC90 (M. haemolytica; [2]) was over 64 µg/mL. The “MIC values, range” value (M. haemolytica; the same M. haemolytica strains of the panel) was 0.5 to 1 µg/mL, the “MIC values, range” value (H. somni; H. somni strains) was 0.25 to 8 µg/mL and the MIC50 (H. somni; [3]) was 0.25 µg/mL (≈ 0.322 µM). The MIC90 (H. somni; [3]) was 2 µg/mL (≈ 2.57 µM), the “MIC Range” value (H. somni; [3]) was 0.12 to 2 µg/mL and the MIC50 (P. multocida; [4]) was 1 µg/mL (≈ 1.29 µM). For the same compound, the MIC90 (P. multocida; [4]) was over 64 µg/mL and the “MIC values, range” value (P. multocida; the same P. multocida strains of the panel) was 1 to 2 µg/mL.
